Assay results: ChEMBL document CHEMBL1201862, “PubChem BioAssay data set” (2004)
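In this assay, cells in 96-well plates receive the compound at five concentrations for 48 hours. Endpoints are linearly interpolated between the surrounding concentrations. The concentration for 50% growth inhibition is given as GI50.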 The source made the active and inactive calls. Rule as the data show it: active = GI50 up to about 1.1 µM and inactive = higher.

Tests used:
Assay in all cases: NCI anticancer screen, dose series, 48 h
[1] = system: ACHN
[2] = system: CCRF-CEM
[3] = system: DMS-114
[4] = system: HOP-92
[5] = system: HT-29
[6] = system: K562
[7] = system: M14
[8] = system: NCI-H23
[9] = system: NCI-H460
[10] = system: OVCAR-4
[11] = system: OVCAR-8
[12] = system: RXF 393
[13] = system: SF-295
[14] = system: SF-539
[15] = system: SK-MEL-28
[16] = system: SK-MEL-5
[17] = system: SNB-75
[18] = system: UACC-62
[19] = system: DMS-273
[20] = system: MDA-N

SMILES	GI50 [1]	GI50 [2]	GI50 [3]	GI50 [4]	GI50 [5]	GI50 [6]	GI50 [7]	GI50 [8]	GI50 [9]	GI50 [10]	GI50 [11]	GI50 [12]	GI50 [13]	GI50 [14]	GI50 [15]	GI50 [16]	GI50 [17]	GI50 [18]	GI50 [19]	GI50 [20]
CCC1(O)C(=O)OCc2c1cc1n(c2=O)Cc2cc3cc(OC)c(OC)cc3nc2-1 (stereo not given)	4.5 µM (inactive)	2.81 µM (inactive)	12.8 µM (inactive)	> 100 µM (inactive)	> 100 µM (inactive)	78.5 µM (inactive)	26.4 µM (inactive)	15 µM (inactive)	3.49 µM (inactive)	> 100 µM (inactive)	82.4 µM (inactive)	16.9 µM (inactive)	10.9 µM (inactive)	5.74 µM (inactive)	> 100 µM (inactive)	17.5 µM (inactive)	15 µM (inactive)	> 10 µM (inactive)	–	–
Cc1ccc(S(=O)(=O)N/N=C\c2c3ccccc3[n+]([O-])c3ccccc23)cc1	2.7 µM (inactive)	0.476 µM (active)	3.37 µM (inactive)	3.68 µM (inactive)	1.63 µM (inactive)	0.36 µM (active)	4.57 µM (inactive)	4.48 µM (inactive)	2.44 µM (inactive)	10.8 µM (inactive)	4.03 µM (inactive)	–	6.76 µM (inactive)	–	3.78 µM (inactive)	5.21 µM (inactive)	3.44 µM (inactive)	5.55 µM (inactive)	3.41 µM (inactive)	–
CC(=O)N(O)Cc1ccccc1	> 100 µM (inactive)	> 100 µM (inactive)	> 100 µM (inactive)	> 100 µM (inactive)	> 100 µM (inactive)	> 100 µM (inactive)	> 100 µM (inactive)	> 100 µM (inactive)	> 100 µM (inactive)	> 100 µM (inactive)	> 100 µM (inactive)	> 100 µM (inactive)	> 100 µM (inactive)	> 100 µM (inactive)	> 100 µM (inactive)	> 100 µM (inactive)	67.9 µM (inactive)	> 100 µM (inactive)	–	–
COc1cc(/C=C2/C(=O)N(C(=O)c3ccccc3O)N=C2C)cc(OC)c1OC	0.92 µM (active)	1.77 µM (inactive)	0.682 µM (active)	1.07 µM (active)	34.4 µM (inactive)	0.393 µM (active)	7.38 µM (inactive)	0.653 µM (active)	1.43 µM (inactive)	2.73 µM (inactive)	1.67 µM (inactive)	0.192 µM (active)	1.16 µM (inactive)	0.839 µM (active)	53.7 µM (inactive)	2.88 µM (inactive)	1.84 µM (inactive)	0.405 µM (active)	–	1.02 µM (active)
COc1ccc(OC(C(=O)O)c2ccccc2)c2c1CCCC2=O (stereo not given)	> 100 µM (inactive)	> 100 µM (inactive)	> 100 µM (inactive)	> 100 µM (inactive)	> 100 µM (inactive)	> 100 µM (inactive)	> 100 µM (inactive)	> 100 µM (inactive)	> 100 µM (inactive)	> 100 µM (inactive)	> 100 µM (inactive)	–	> 100 µM (inactive)	> 100 µM (inactive)	> 100 µM (inactive)	> 100 µM (inactive)	–	> 100 µM (inactive)	> 100 µM (inactive)	–
O=S(=O)(c1ccccc1)C(CN1CCCCC1)S(=O)(=O)c1ccccc1	> 100 µM (inactive)	> 100 µM (inactive)	–	> 100 µM (inactive)	> 100 µM (inactive)	> 100 µM (inactive)	> 100 µM (inactive)	> 100 µM (inactive)	> 100 µM (inactive)	> 100 µM (inactive)	> 100 µM (inactive)	> 100 µM (inactive)	> 100 µM (inactive)	> 100 µM (inactive)	> 100 µM (inactive)	–	> 100 µM (inactive)	> 100 µM (inactive)	> 100 µM (inactive)	–
O=C(Nc1ccc(N2C(=O)CSC2c2ccccc2O)cc1)c1ccc(N2C(=O)CSC2c2ccccc2O)cc1 (stereo not given)	35.6 µM (inactive)	> 100 µM (inactive)	–	26.7 µM (inactive)	> 100 µM (inactive)	> 100 µM (inactive)	23.6 µM (inactive)	64.4 µM (inactive)	83.8 µM (inactive)	67.6 µM (inactive)	51.3 µM (inactive)	55.6 µM (inactive)	34.4 µM (inactive)	69.7 µM (inactive)	39.1 µM (inactive)	77.4 µM (inactive)	27.7 µM (inactive)	29.1 µM (inactive)	–	83.8 µM (inactive)
CC(=O)OC(=C(C#N)C#N)c1nccnc1C(C)=O	> 20 µM (inactive)	11.2 µM (inactive)	–	> 20 µM (inactive)	4.2 µM (inactive)	11 µM (inactive)	4.8 µM (inactive)	> 20 µM (inactive)	7.83 µM (inactive)	> 20 µM (inactive)	> 20 µM (inactive)	5.77 µM (inactive)	10.9 µM (inactive)	7.24 µM (inactive)	9.77 µM (inactive)	6.32 µM (inactive)	3.96 µM (inactive)	> 20 µM (inactive)	–	6.17 µM (inactive)
O=Cc1ccc(-c2cc(C=O)c(-c3cccs3)[nH]2)s1	41.4 µM (inactive)	20 µM (inactive)	–	32.7 µM (inactive)	25.1 µM (inactive)	25.9 µM (inactive)	24 µM (inactive)	37 µM (inactive)	25.8 µM (inactive)	26 µM (inactive)	21.4 µM (inactive)	35.6 µM (inactive)	21.8 µM (inactive)	24.4 µM (inactive)	36.3 µM (inactive)	23 µM (inactive)	17.1 µM (inactive)	27.5 µM (inactive)	–	18.6 µM (inactive)
Cc1ccc(NC(=O)C(=O)C(C(=O)c2ccc3ccccc3c2)C2OC(=O)c3ccccc32)cc1C (stereo not given)	32 µM (inactive)	5.2 µM (inactive)	9.35 µM (inactive)	14 µM (inactive)	33 µM (inactive)	13.8 µM (inactive)	15.6 µM (inactive)	4.79 µM (inactive)	5.74 µM (inactive)	13.1 µM (inactive)	12.8 µM (inactive)	–	–	3.02 µM (inactive)	10.3 µM (inactive)	15.2 µM (inactive)	2.98 µM (inactive)	12.4 µM (inactive)	5.87 µM (inactive)	–
CC1(C)CC(C)(C)CC(O)(C2(O)CC(C)(C)CC(C)(C)C2)C1	> 100 µM (inactive)	> 100 µM (inactive)	> 100 µM (inactive)	–	> 100 µM (inactive)	> 100 µM (inactive)	> 100 µM (inactive)	> 100 µM (inactive)	> 100 µM (inactive)	–	> 100 µM (inactive)	–	> 100 µM (inactive)	> 100 µM (inactive)	> 100 µM (inactive)	> 100 µM (inactive)	–	> 100 µM (inactive)	> 100 µM (inactive)	–
Cc1nc2c(n1Cc1ccc(F)cc1)C(=O)c1ccccc1C2=O	28.9 µM (inactive)	10.5 µM (inactive)	–	–	9.44 µM (inactive)	5.61 µM (inactive)	> 100 µM (inactive)	13.2 µM (inactive)	4.07 µM (inactive)	31.1 µM (inactive)	35.4 µM (inactive)	14.9 µM (inactive)	44.2 µM (inactive)	6.98 µM (inactive)	> 100 µM (inactive)	10.3 µM (inactive)	36.6 µM (inactive)	5.25 µM (inactive)	6.43 µM (inactive)	–
O=c1oc2ncccc2n1Cc1ccc([N+](=O)[O-])cc1	> 100 µM (inactive)	> 100 µM (inactive)	–	> 100 µM (inactive)	> 100 µM (inactive)	> 100 µM (inactive)	> 100 µM (inactive)	> 100 µM (inactive)	> 100 µM (inactive)	> 100 µM (inactive)	> 100 µM (inactive)	> 100 µM (inactive)	> 100 µM (inactive)	> 100 µM (inactive)	> 100 µM (inactive)	> 100 µM (inactive)	80.7 µM (inactive)	> 100 µM (inactive)	–	> 100 µM (inactive)
NC(=S)NS(=O)(=O)c1ccc(F)cc1	> 100 µM (inactive)	> 100 µM (inactive)	–	> 100 µM (inactive)	> 100 µM (inactive)	> 100 µM (inactive)	> 100 µM (inactive)	> 100 µM (inactive)	> 100 µM (inactive)	> 100 µM (inactive)	> 100 µM (inactive)	> 100 µM (inactive)	> 100 µM (inactive)	> 100 µM (inactive)	> 100 µM (inactive)	> 100 µM (inactive)	> 100 µM (inactive)	> 100 µM (inactive)	–	> 100 µM (inactive)
CCc1oc2ccc(OC)c3c2c1C=CC=C3	> 100 µM (inactive)	> 100 µM (inactive)	–	–	77.3 µM (inactive)	> 100 µM (inactive)	> 100 µM (inactive)	> 100 µM (inactive)	> 100 µM (inactive)	> 100 µM (inactive)	> 100 µM (inactive)	54.1 µM (inactive)	> 100 µM (inactive)	> 100 µM (inactive)	> 100 µM (inactive)	> 100 µM (inactive)	60.3 µM (inactive)	> 100 µM (inactive)	> 100 µM (inactive)	–
CCSC12OC3(CCCCCN3C1=O)C1C(=O)N(c3ccccc3)C(=O)C12 (stereo not given)	> 100 µM (inactive)	> 100 µM (inactive)	–	> 100 µM (inactive)	> 100 µM (inactive)	> 100 µM (inactive)	> 100 µM (inactive)	> 100 µM (inactive)	> 100 µM (inactive)	> 100 µM (inactive)	> 100 µM (inactive)	> 100 µM (inactive)	> 100 µM (inactive)	> 100 µM (inactive)	> 100 µM (inactive)	> 100 µM (inactive)	> 100 µM (inactive)	> 100 µM (inactive)	–	> 100 µM (inactive)
